Data reported in patent US7528252B2, “Derivatives of triazoly-imidazopyridine useful as ligands of the adenosine A2a receptor and their use as medicaments” (Sigma-Tau Industrie Farmaceutiche Riunite S.p.A., priority 2002, dated 2009).

Assays:
[1] = biological target: M3 (Homo sapiens, UniProt P20309); assay: Receptor binding study, M3; conditions: mean values, n = 2, read-out: percent inhibition of control specific binding
[2] = biological target: M1 (Homo sapiens, UniProt P11229); assay: Receptor binding study, M1; conditions: mean values, n = 2, read-out: percent inhibition of control specific binding
Chain of M1 (P11229 whole entry): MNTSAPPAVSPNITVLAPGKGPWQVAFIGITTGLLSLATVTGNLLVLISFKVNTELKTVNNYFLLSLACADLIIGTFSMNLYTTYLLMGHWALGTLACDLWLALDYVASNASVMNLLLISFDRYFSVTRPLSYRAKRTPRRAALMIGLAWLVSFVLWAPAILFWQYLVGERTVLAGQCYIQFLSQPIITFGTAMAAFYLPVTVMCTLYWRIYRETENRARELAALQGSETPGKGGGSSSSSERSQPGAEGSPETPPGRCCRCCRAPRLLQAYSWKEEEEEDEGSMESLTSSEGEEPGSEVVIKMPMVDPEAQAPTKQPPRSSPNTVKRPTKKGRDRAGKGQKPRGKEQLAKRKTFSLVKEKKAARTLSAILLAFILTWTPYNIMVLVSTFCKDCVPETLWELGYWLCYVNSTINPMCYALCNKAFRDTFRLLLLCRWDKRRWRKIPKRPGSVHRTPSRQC

[3] = tested on: NMDA; assay: Receptor binding study, NMDA; conditions: 1 μM; mean values, n = 2
[4] = tested on: α2(non-selective); assay: Receptor binding study, α2; conditions: 1 μM; mean values, n = 2
[5] = biological target: T1, Cholinetransporter (Homo sapiens, UniProt Q9GZV3); assay: Receptor binding study, Choline transporter; conditions: 1 μM; mean values, n = 2; read-out: percent inhibition of control specific binding
T1 sequence (Q9GZV3 1-580): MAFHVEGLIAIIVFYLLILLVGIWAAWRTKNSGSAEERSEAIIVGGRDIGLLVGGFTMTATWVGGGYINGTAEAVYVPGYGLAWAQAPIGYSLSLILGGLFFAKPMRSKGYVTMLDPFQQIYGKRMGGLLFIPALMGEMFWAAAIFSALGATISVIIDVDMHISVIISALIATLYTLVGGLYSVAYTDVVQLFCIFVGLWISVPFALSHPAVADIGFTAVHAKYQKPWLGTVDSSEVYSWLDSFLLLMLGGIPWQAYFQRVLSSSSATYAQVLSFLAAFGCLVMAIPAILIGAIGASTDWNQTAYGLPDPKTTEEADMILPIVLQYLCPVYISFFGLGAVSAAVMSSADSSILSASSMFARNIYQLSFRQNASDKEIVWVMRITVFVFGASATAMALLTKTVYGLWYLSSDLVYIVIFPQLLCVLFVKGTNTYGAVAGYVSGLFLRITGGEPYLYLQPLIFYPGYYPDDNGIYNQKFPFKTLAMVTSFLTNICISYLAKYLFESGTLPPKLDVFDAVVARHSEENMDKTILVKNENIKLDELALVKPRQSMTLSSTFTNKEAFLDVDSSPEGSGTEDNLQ

[6] = biological target: 5-HT4 (Homo sapiens, UniProt Q13639); assay: Receptor binding study, 5-HT4; conditions: mean values, n = 2, read-out: percent inhibition of control specific binding
[7] = biological target: DA transporter (Homo sapiens, UniProt Q01959); assay: Receptor binding study, DA transporter; conditions: mean values, n = 2, read-out: percent inhibition of control specific binding
Chain of DA transporter (Q01959 whole entry, species assumed): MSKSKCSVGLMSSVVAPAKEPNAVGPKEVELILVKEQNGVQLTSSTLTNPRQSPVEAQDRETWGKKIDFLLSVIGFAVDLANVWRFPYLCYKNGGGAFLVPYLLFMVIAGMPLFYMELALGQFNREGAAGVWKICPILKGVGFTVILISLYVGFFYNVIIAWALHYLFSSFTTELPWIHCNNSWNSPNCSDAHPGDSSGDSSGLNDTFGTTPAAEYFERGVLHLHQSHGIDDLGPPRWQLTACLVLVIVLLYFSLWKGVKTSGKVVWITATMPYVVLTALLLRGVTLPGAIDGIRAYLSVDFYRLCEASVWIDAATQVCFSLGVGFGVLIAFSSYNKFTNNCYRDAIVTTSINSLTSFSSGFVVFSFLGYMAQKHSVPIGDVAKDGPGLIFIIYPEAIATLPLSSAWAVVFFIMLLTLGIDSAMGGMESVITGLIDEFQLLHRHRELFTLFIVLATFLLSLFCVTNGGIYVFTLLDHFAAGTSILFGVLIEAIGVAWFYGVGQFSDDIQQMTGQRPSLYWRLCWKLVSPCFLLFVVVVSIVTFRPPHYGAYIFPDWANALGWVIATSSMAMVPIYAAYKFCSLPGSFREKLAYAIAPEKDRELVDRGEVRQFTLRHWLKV

[8] = biological target: T2, human A3 subtype adenosine receptor (Homo sapiens, UniProt P0DMS8); assay: Affinity towards the adenosine A3 receptor ([125I]AB-MECA binding, HEK-293 membranes); conditions: test compounds; read-out: A3 (h) Ki
T2 construct: expressed in transfected cells; host or cells: HEK-293
T2 sequence (P0DMS8 whole entry): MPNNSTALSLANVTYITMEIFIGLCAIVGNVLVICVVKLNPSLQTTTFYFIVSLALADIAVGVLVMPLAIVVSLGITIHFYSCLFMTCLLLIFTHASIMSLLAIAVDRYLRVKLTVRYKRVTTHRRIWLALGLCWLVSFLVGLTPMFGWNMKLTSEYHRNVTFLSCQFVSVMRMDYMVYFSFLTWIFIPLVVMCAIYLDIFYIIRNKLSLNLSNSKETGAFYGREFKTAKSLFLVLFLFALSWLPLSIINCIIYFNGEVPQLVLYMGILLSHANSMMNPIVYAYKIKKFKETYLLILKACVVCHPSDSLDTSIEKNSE

[9] = biological target: T3, M5 (Homo sapiens, UniProt P08912); assay: Receptor binding study, M5; conditions: 1 μM; mean values, n = 2; read-out: percent inhibition of control specific binding
T3 sequence (P08912 1-532): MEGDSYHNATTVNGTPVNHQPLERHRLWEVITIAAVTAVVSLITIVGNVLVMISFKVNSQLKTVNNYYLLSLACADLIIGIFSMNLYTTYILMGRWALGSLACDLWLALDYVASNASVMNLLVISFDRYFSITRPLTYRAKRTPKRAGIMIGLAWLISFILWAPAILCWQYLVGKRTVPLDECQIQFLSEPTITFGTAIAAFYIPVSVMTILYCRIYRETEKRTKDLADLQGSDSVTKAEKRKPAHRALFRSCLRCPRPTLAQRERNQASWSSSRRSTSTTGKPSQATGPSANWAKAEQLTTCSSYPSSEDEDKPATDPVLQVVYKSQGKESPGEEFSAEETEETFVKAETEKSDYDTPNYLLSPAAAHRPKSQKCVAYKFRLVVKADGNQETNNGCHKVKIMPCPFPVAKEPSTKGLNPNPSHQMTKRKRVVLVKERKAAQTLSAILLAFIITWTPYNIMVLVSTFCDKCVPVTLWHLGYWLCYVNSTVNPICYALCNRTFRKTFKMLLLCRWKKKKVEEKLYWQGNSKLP

[10] = tested on: GABAa; assay: Receptor binding study, GABAa; conditions: 1 μM; mean values, n = 2
[11] = biological target: 5-HT2C (h) (Homo sapiens, UniProt P28335); assay: Receptor binding study, 5-HT2C; conditions: mean values, n = 2, read-out: percent inhibition of control specific binding
Chain of 5-HT2C (h) (P28335 33-458): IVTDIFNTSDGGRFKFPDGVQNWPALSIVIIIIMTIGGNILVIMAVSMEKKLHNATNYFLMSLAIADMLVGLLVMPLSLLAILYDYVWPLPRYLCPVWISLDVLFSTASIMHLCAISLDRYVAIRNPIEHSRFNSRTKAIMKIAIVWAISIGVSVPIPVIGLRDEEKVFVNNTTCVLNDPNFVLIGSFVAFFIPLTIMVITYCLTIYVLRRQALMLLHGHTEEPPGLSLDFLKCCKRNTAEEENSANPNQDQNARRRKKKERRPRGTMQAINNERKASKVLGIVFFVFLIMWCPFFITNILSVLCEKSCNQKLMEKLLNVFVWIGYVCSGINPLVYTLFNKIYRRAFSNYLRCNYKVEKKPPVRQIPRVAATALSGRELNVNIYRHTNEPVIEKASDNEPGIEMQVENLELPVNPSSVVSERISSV

[12] = tested on: Kainate; assay: Receptor binding study, Kainate; conditions: 1 μM; mean values, n = 2
[13] = biological target: 5-HT5A (h) (Homo sapiens, UniProt P47898); assay: Receptor binding study, 5-HT5A; conditions: mean values, n = 2, read-out: percent inhibition of control specific binding
Chain of 5-HT5A (h) (P47898 whole entry): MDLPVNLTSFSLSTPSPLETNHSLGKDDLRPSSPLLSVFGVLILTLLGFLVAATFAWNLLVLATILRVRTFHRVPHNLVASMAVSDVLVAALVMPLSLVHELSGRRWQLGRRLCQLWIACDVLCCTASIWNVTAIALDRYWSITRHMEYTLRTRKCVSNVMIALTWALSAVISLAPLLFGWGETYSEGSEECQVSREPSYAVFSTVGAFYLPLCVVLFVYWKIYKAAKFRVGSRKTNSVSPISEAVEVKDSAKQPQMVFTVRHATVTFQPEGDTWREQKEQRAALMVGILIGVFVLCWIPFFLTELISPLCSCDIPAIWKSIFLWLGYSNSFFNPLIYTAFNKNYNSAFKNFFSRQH

[14] = tested on: Opiate (non-selective); assay: Receptor binding study, Opiate (non-selective); conditions: 1 μM; mean values, n = 2
[15] = biological target: 5-HT3 (h) (Homo sapiens, UniProt P46098); assay: Receptor binding study, 5-HT3; conditions: mean values, n = 2, read-out: percent inhibition of control specific binding
Chain of 5-HT3 (h) (P46098 24-478): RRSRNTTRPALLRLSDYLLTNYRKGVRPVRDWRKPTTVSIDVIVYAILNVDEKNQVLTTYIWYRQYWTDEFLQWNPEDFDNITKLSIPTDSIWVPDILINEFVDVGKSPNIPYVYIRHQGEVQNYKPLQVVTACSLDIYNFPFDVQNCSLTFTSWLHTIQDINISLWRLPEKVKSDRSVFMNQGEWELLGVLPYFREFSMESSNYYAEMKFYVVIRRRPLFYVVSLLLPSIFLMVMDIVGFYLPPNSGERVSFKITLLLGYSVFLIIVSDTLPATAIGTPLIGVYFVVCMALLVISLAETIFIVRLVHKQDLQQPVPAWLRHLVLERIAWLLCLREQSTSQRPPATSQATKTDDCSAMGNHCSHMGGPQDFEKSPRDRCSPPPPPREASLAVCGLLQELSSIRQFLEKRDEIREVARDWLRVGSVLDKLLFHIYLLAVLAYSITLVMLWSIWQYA

[16] = tested on: AMPA; assay: Receptor binding study, AMPA; conditions: 1 μM; mean values, n = 2
[17] = biological target: 5-HT1A (Homo sapiens, UniProt P08908); assay: Receptor binding study, 5-HT1A; conditions: mean values, n = 2, read-out: percent inhibition of control specific binding
[18] = tested on: PCP; assay: Receptor binding study, PCP; conditions: 1 μM; mean values, n = 2
[19] = biological target: D2 (Homo sapiens, UniProt P14416); assay: Receptor binding study, D2; conditions: mean values, n = 2, read-out: percent inhibition of control specific binding
Chain of D2 (P14416 whole entry): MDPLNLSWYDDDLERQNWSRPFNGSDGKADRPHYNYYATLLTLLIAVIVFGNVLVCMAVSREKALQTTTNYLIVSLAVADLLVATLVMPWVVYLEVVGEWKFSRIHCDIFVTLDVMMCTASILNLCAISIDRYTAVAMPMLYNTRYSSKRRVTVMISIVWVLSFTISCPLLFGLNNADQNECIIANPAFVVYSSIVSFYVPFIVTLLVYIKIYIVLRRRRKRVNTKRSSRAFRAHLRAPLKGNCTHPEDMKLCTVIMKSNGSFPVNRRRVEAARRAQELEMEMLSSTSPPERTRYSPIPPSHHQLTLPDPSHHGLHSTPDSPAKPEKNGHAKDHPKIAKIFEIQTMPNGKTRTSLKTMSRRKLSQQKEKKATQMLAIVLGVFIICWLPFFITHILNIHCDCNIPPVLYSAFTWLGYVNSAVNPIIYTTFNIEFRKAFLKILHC

[20] = biological target: D3 (Homo sapiens, UniProt P35462); assay: Receptor binding study, D3; conditions: mean values, n = 2, read-out: percent inhibition of control specific binding
Chain of D3 (P35462 whole entry): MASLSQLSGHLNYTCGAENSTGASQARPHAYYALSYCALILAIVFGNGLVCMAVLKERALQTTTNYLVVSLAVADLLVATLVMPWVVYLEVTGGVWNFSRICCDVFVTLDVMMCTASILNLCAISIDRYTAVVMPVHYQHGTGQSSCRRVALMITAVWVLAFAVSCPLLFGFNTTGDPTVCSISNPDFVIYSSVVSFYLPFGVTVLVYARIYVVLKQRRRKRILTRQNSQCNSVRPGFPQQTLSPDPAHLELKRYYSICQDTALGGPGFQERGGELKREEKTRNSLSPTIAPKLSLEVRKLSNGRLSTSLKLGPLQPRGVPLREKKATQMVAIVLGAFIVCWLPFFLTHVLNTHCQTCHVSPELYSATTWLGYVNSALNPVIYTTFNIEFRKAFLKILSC

[21] = biological target: M2 (Homo sapiens, UniProt P08172); assay: Receptor binding study, M2; conditions: mean values, n = 2, read-out: percent inhibition of control specific binding
Chain of M2 (P08172 whole entry): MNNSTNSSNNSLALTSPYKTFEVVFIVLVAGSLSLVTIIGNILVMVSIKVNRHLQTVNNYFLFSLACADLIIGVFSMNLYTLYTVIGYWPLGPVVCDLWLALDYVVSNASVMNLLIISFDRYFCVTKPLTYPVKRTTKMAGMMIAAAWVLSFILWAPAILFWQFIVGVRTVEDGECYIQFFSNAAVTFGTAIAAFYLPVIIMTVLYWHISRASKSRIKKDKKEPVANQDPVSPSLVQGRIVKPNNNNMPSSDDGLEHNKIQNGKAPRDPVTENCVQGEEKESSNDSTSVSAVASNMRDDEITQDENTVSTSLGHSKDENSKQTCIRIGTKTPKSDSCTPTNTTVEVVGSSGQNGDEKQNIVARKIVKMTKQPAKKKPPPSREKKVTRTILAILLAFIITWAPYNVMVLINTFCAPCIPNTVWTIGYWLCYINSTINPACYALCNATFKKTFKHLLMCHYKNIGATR

[22] = biological target: D4.4 (h) (Homo sapiens, UniProt P21917); assay: Receptor binding study, D4.4; conditions: mean values, n = 2, read-out: percent inhibition of control specific binding
Chain of D4.4 (h) (P21917 whole entry): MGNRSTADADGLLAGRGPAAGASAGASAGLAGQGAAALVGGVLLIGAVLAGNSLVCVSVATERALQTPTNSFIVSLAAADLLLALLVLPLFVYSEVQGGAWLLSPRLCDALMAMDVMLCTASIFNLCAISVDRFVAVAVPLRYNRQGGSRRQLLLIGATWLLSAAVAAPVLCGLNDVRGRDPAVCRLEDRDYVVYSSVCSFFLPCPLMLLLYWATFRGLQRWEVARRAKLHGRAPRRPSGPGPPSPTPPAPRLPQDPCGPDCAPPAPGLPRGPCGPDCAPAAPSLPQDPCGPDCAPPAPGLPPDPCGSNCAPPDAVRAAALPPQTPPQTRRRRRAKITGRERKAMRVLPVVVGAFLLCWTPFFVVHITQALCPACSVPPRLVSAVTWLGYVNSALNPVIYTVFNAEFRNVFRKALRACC

Chain of M3 (P20309 whole entry): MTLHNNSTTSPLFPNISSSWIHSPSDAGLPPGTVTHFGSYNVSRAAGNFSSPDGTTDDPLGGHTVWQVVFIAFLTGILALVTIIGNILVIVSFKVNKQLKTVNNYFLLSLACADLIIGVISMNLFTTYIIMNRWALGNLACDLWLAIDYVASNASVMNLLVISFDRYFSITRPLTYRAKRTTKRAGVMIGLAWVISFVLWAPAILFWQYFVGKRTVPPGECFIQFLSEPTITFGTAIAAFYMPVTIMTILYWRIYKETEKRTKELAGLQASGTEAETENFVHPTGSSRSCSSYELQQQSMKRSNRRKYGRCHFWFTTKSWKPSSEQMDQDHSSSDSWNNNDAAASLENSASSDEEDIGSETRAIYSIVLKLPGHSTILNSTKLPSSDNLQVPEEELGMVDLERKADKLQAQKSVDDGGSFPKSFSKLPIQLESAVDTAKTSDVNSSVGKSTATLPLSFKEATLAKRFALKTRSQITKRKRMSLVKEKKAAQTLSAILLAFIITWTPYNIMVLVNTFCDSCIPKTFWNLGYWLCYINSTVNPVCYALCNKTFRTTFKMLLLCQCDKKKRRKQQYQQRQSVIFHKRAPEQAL

Row | SMILES | inhibition at 1 µM [1] [%] | inhibition at 1 µM [2] [%] | percent inhibition of control specific binding [3] | percent inhibition of control specific binding [4] | inhibition at 1 µM [5] [%] | inhibition at 1 µM [6] [%] | inhibition at 1 µM [7] [%] | Ki [8] [µM] | inhibition at 1 µM [9] [%] | percent inhibition of control specific binding [10] | inhibition at 1 µM [11] [%] | percent inhibition of control specific binding [12] | inhibition at 1 µM [13] [%] | percent inhibition of control specific binding [14] | inhibition at 1 µM [15] [%] | percent inhibition of control specific binding [16] | inhibition at 1 µM [17] [%] | percent inhibition of control specific binding [18] | inhibition at 1 µM [19] [%] | inhibition at 1 µM [20] [%] | further results
1 | CCCCc1nc(N)c2nc(-n3nccn3)n(C)c2n1 [ST 1535, 2-butyl-9-methyl-8-(2H-1,2,3-triazol-2-yl)-9H-purine-6-ylamine] | < 10 | < 10 | — (The symbol — indicates an inhibition of less than 10%.) | — (The symbol — indicates an inhibition of less than 10%.) | < 10 | < 10 | < 10 | 1.58 | < 10 | — (The symbol — indicates an inhibition of less than 10%.) | < 10 | — (The symbol — indicates an inhibition of less than 10%.) | < 10 | — (The symbol — indicates an inhibition of less than 10%.) | < 10 | — (The symbol — indicates an inhibition of less than 10%.) | < 10 | — (The symbol — indicates an inhibition of less than 10%.) | < 10 | < 10 | inhibition at 1 µM [21]: < 10%; inhibition at 1 µM [22]: < 10%
2 | CCCCCc1nc(N)c2nc(-n3nccn3)n(C)c2n1 [ST 2097, 9-methyl-2-pentyl-8-(2H-1,2,3-triazol-2-yl)-9H-purine-6-ylamine] | < 10 | < 10 | — (The symbol — indicates an inhibition of less than 10%.) | — (The symbol — indicates an inhibition of less than 10%.) | < 10 | < 10 | < 10 | 0.519 | < 10 | — (The symbol — indicates an inhibition of less than 10%.) | < 10 | — (The symbol — indicates an inhibition of less than 10%.) | < 10 | — (The symbol — indicates an inhibition of less than 10%.) | < 10 | — (The symbol — indicates an inhibition of less than 10%.) | < 10 | — (The symbol — indicates an inhibition of less than 10%.) | < 10 | < 10 | inhibition at 1 µM [21]: < 10%; inhibition at 1 µM [22]: < 10%
